The values that follow come from ChEMBL document CHEMBL1201862, “PubChem BioAssay data set” (2004).

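Five compound concentrations were applied to cells in 96-well plates for 48 hours; endpoints were derived by simple linear interpolation of the resulting dose-response curve. GI50 is the concentration that inhibits growth by half.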 Calls of active or inactive are those of the source. No stated cut-off is given here; in the data, active = GI50 up to about 1.1 µM and inactive = higher. Bounds are passed on as bounds.

Some test systems named below: SK-MEL-5; SK-MEL-28; UO-31; SF-268; HL-60; RXF 393; HCT-15; SN12C; OVCAR-8; M19-MEL; A549; SW-620; MOLT-4; LOX IMVI; COLO 205; HCC 2998; MDA-MB-231; MCF7; Hs-578T; MDA-MB-435.
Test in all cases: NCI-60 cell line screen, 48 h

Take `N#C/C(=C/Sc1ccccc1)C(=O)O`: the GI50 is 29.6 µM (inactive) in the assay on SK-MEL-5; 24.5 µM (inactive) with SK-MEL-28; 12.6 µM (inactive) with UO-31; 8.59 µM (inactive) in the assay on SF-268; 34.4 µM (inactive) with HL-60; 14.3 µM (inactive) with RXF 393. For the same compound, the GI50 is 21.9 µM with HCT-15; 20 µM (inactive) in the assay with SN12C; 17 µM (inactive) with OVCAR-8; 23.3 µM (inactive) in the assay with M19-MEL; 17.4 µM (inactive) in the assay on A549; 41.2 µM (inactive) in the assay with SW-620. Also, the GI50 in the assay with MOLT-4 is 14.9 µM (inactive); in the assay with LOX IMVI, 10.6 µM (inactive); in the assay with COLO 205, 20.9 µM (inactive).
For the compound `N#CC(NNC(=O)Cc1ccccc1)c1cccc(O)c1` (stereo unspecified), the GI50 in the assay with SK-MEL-5, in the assay on SK-MEL-28, with UO-31, with SF-268, in the assay with HL-60 and with RXF 393 was > 100 µM (inactive) throughout. Besides, the GI50 in the assay on HCT-15 was greater than 100 µM; in the assay on SN12C it was > 100 µM (inactive); in the assay on OVCAR-8, > 100 µM (inactive); in the assay with M19-MEL it was > 100 µM (inactive); in the assay with A549 it was > 100 µM (inactive); in the assay on SW-620 it was > 100 µM (inactive). The GI50 in the assay on MOLT-4, in the assay with LOX IMVI and in the assay with COLO 205 was > 100 µM (inactive) in each case.
Turning to `CCC12CCCC(=O)N1C(CO)C(c1ccccc1)O2` (stereo unspecified), the GI50 in the assay on SK-MEL-5 is > 100 µM (inactive); in the assay with SK-MEL-28 it was > 100 µM (inactive); in the assay on SF-268, > 100 µM (inactive); with RXF 393, > 100 µM (inactive); in the assay with HCT-15, greater than 100 µM; with SN12C, > 100 µM (inactive). In addition, the GI50 with OVCAR-8, in the assay on M19-MEL, in the assay with A549, with SW-620, in the assay with LOX IMVI and in the assay with COLO 205 was > 100 µM (inactive) each time.
For the compound `Nc1ccc(C(=O)NN2C(=O)C(Cl)C2c2cccc([N+](=O)[O-])c2)cc1` (stereo unspecified), the GI50 in the assay with SK-MEL-5 is 19.2 µM (inactive); in the assay with SK-MEL-28 it was 21 µM (inactive); in the assay on UO-31 it was 17.4 µM (inactive); in the assay on SF-268, 17 µM (inactive); in the assay with HL-60, 20.7 µM (inactive); with HCT-15, 18.6 µM. Besides, the GI50 was 19.7 µM (inactive) in the assay on SN12C; 18.1 µM (inactive) in the assay with OVCAR-8; 19.8 µM (inactive) in the assay on M19-MEL; 46.3 µM (inactive) in the assay with A549; 21.7 µM (inactive) with SW-620; 15.1 µM (inactive) with MOLT-4. For the same compound, the GI50 is 10.2 µM (inactive) in the assay on LOX IMVI, 19 µM (inactive) in the assay on COLO 205 and 24.3 µM (inactive) with HCC 2998.
On to `O=C(N/N=C/c1cc(-c2ccccc2Cl)c(-c2ccccc2Cl)o1)c1ccncc1`, for which the GI50 with SK-MEL-28 was > 100 µM (inactive); with SF-268, > 100 µM (inactive); with HL-60, 89.7 µM (inactive); with RXF 393 it was > 100 µM (inactive); with SN12C, > 100 µM (inactive); in the assay with M19-MEL, > 100 µM (inactive). Moreover, the GI50 in the assay on A549, with SW-620, with LOX IMVI and with COLO 205 was > 100 µM (inactive) in each case.
In the case of `COc1ccc(S(=O)(=O)NC(C)C(=O)O)cc1` (stereo unspecified), the GI50 in the assay on SK-MEL-5, in the assay with SK-MEL-28, in the assay with UO-31, in the assay on SF-268, in the assay on HL-60 and in the assay with RXF 393 was > 100 µM (inactive) each time. In addition, the GI50 in the assay on HCT-15 was greater than 100 µM; in the assay with SN12C, > 100 µM (inactive); in the assay with OVCAR-8, > 100 µM (inactive); in the assay with M19-MEL it was > 100 µM (inactive); in the assay with A549 it was > 100 µM (inactive); in the assay with SW-620 it was > 100 µM (inactive). Moreover, the GI50 in the assay with MOLT-4, with LOX IMVI and in the assay with COLO 205 was > 100 µM (inactive) each time.
Turning to `CN(C)c1cc[n+](-c2nc([N-]C(=O)C(F)(F)F)nc3c2ncn3C2CC(O)C(CO)O2)cc1` (stereo unspecified), the GI50 in the assay on SK-MEL-5, with SK-MEL-28, with UO-31, with MDA-MB-231, in the assay on SF-268 and with HL-60 was > 100 µM (inactive) each time. The GI50 in the assay with MCF7 was > 100 µM (inactive); in the assay on Hs-578T, > 100 µM (inactive); in the assay on RXF 393 it was > 100 µM (inactive); in the assay with HCT-15, greater than 100 µM; in the assay on SN12C, > 100 µM (inactive); with OVCAR-8, > 100 µM (inactive). The GI50 in the assay with MDA-MB-435, in the assay with A549, in the assay on SW-620, in the assay with MOLT-4, in the assay with LOX IMVI and in the assay with COLO 205 was > 100 µM (inactive) in each case. For the same compound, in the assay with HCC 2998, the GI50 is > 100 µM (inactive).
Regarding `CSc1ncc2c(C#N)c3ccccn3c(=O)c2n1`, the GI50 in the assay with SK-MEL-5, in the assay with SK-MEL-28, in the assay on UO-31, in the assay on MDA-MB-231, in the assay with SF-268 and with HL-60 was > 100 µM (inactive) each time. Further, the GI50 was > 100 µM (inactive) in the assay with MCF7; > 100 µM (inactive) in the assay on Hs-578T; > 100 µM (inactive) with RXF 393; greater than 100 µM in the assay with HCT-15; > 100 µM (inactive) with SN12C; > 100 µM (inactive) in the assay on OVCAR-8. For the same compound, the GI50 was > 100 µM (inactive) in the assay with MDA-MB-435; > 100 µM (inactive) in the assay on A549; 52.6 µM (inactive) with SW-620; > 100 µM (inactive) in the assay on MOLT-4; > 100 µM (inactive) in the assay on LOX IMVI; > 100 µM (inactive) in the assay on COLO 205. In addition, the GI50 in the assay with HCC 2998 is > 100 µM (inactive).
In the case of `CCN(CC)CCCNc1nnc(C)c2[nH]c3ccccc3c12`, the GI50 was 14.6 µM (inactive) in the assay with SK-MEL-5; 18.7 µM (inactive) in the assay on SK-MEL-28; 37.2 µM (inactive) with UO-31; 11.4 µM (inactive) in the assay with MDA-MB-231; 8.73 µM (inactive) in the assay on SF-268; 3.28 µM (inactive) in the assay with HL-60. Moreover, the GI50 with MCF7 is 3.61 µM (inactive); in the assay on Hs-578T it was 15.4 µM (inactive); with RXF 393, 17.7 µM (inactive); in the assay on HCT-15, greater than 100 µM; in the assay on SN12C, 12.7 µM (inactive); with OVCAR-8, 7.93 µM (inactive). The GI50 was 11.6 µM (inactive) with MDA-MB-435; 17.8 µM (inactive) in the assay with A549; 9.2 µM (inactive) with SW-620; 4.1 µM (inactive) in the assay on MOLT-4; 7.46 µM (inactive) in the assay with LOX IMVI; 2.7 µM (inactive) with COLO 205. For the same compound, the GI50 in the assay with HCC 2998 was 9.95 µM (inactive).
In the case of `CN(CCNC(=O)c1n[nH]c2c1ccc1ccccc12)CCNC(=O)c1n[nH]c2c1ccc1ccccc12`, the GI50 with SK-MEL-5 was 1.71 µM (inactive); in the assay on SK-MEL-28 it was 1.93 µM (inactive); in the assay on UO-31, 7.35 µM (inactive); in the assay with MDA-MB-231, 1.94 µM (inactive); with SF-268, 2.14 µM (inactive); with HL-60, 2.75 µM (inactive). In addition, the GI50 was 1.87 µM (inactive) in the assay on MCF7; 1.96 µM (inactive) in the assay with Hs-578T; 1.94 µM (inactive) with RXF 393; 13.7 µM with HCT-15; 1.8 µM (inactive) with SN12C; 2.05 µM (inactive) in the assay with OVCAR-8. The GI50 in the assay on MDA-MB-435 is 1.79 µM (inactive); in the assay with A549 it was 2.07 µM (inactive); in the assay with SW-620, 1.84 µM (inactive); with MOLT-4, 2.77 µM (inactive); with LOX IMVI, 1.78 µM (inactive); with COLO 205, 1.39 µM (inactive). In addition, the GI50 with HCC 2998 is 1.91 µM (inactive).
Consider `NS(=O)(=O)c1nnc(NC(=O)c2cccc([N+](=O)[O-])c2)s1`, for which the GI50 with SK-MEL-5, in the assay with SK-MEL-28, in the assay with UO-31, in the assay with MDA-MB-231, with SF-268 and in the assay with HL-60 was > 100 µM (inactive) in each case. Besides, the GI50 in the assay on MCF7 is > 100 µM (inactive); with Hs-578T it was > 100 µM (inactive); with RXF 393, > 100 µM (inactive); with HCT-15 it was greater than 100 µM; in the assay on SN12C, > 100 µM (inactive); in the assay with OVCAR-8, > 100 µM (inactive). The GI50 with MDA-MB-435, in the assay on A549, in the assay on SW-620, with MOLT-4, with LOX IMVI and with COLO 205 was > 100 µM (inactive) each time. Also, the GI50 with HCC 2998 was > 100 µM (inactive).
Consider `Cc1c([N+](=O)[O-])oc2ccc3ccccc3c12`, for which the GI50 in the assay with SK-MEL-5 was 5.4 µM (inactive); in the assay with SK-MEL-28, > 100 µM (inactive); in the assay on UO-31, 34.6 µM (inactive); in the assay on MDA-MB-231, > 100 µM (inactive); in the assay on SF-268, 35.7 µM (inactive); in the assay with HL-60, 3.18 µM (inactive). Besides, the GI50 in the assay with MCF7 was 10.3 µM (inactive); with Hs-578T it was > 100 µM (inactive); in the assay with RXF 393, 21.4 µM (inactive); with HCT-15, 19 µM; with SN12C, 12.5 µM (inactive); in the assay on OVCAR-8, 26.1 µM (inactive). The GI50 in the assay on MDA-MB-435 was 12.4 µM (inactive); in the assay on A549, 66.1 µM (inactive); in the assay on SW-620, 20.2 µM (inactive); in the assay on MOLT-4, 2.58 µM (inactive); with LOX IMVI it was 18.5 µM (inactive); with COLO 205, 6.79 µM (inactive). In addition, the GI50 in the assay with HCC 2998 is 25.1 µM (inactive).
